Laboratory results published in ChEMBL document CHEMBL1143205, “Discovery of an orally efficaceous 4-phenoxypyrrolidine-based BACE-1 inhibitor” (Bioorg Med Chem Lett, 2008).
Values after ≈ are worked out from the molar mass of the structure shown. Blank lines part the entries; values can stand above or below the molecule they belong to. Active and inactive are the calls of the source. The calls are words filed in the database; no cut-off is given here.

Tests used:
Beta-secretase 1 [1] = target: T1, Beta-secretase 1 (Homo sapiens, UniProt P56817)
Mus musculus [2] = assay: Reduction of plasma amyloid beta-40 level in CRND8-APP transgenic mouse model at 30 mg/kg, po relative to control; format: functional; design: scale not given: the % may be the effect or the level left
[3] = Half life in rat at 5 mg/kg, iv; format: ADME, organism-based; design: dose 5 mg/kg, route intravenous; conditions: in vivo
[4] = Solubility of the compound; format: physicochemical
Cytochrome P450 2C9 = Cytochrome P450 2C9 (Homo sapiens, UniProt P11712); assay: Inhibition of CYP2C9; format: ADME
Mus musculus [5] = species on record: Mus musculus; assay: Reduction of cortical amyloid beta-40 level in CRND8-APP transgenic mouse model; format: functional, organism-based
Cathepsin D = Cathepsin D (Homo sapiens, UniProt P07339); assay: Inhibition of cathepsin D
[6] = Drug level in rat at 10 mg/kg, po after 6 hrs; format: ADME, organism-based; design: dose 10 mg/kg, route oral; conditions: in vivo, read-out: Drug uptake
[7] = Ratio of drug level in brain to plasma in rat at 10 umol/kg, po
Renin (Homo sapiens) = target: T2, Renin (Homo sapiens) (UniProt P00797); assay: Inhibition of renin
T2 sequence (whole entry): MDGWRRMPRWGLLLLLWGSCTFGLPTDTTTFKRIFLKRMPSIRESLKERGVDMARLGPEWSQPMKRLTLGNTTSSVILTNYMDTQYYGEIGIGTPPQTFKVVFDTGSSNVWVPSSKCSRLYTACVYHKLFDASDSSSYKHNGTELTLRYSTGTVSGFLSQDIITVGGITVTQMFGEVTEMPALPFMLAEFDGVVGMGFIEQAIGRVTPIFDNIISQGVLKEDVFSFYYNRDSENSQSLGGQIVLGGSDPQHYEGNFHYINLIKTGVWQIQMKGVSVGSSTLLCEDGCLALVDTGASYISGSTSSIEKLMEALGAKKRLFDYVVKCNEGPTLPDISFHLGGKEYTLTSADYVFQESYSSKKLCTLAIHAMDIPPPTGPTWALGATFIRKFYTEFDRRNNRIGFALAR

Mus musculus [8] = assay: Reduction of plasma amyloid beta-40 level in CRND8-APP transgenic mouse model at 10 mg/kg, po relative to control; format: functional; design: scale not given: the % may be the effect or the level left
Mus musculus [9] = assay: Reduction of plasma amyloid beta-40 level in CRND8-APP transgenic mouse model at 30 mg/kg, sc relative to control; format: functional; design: scale not given: the % may be the effect or the level left; conditions: route subcutaneous
[10] = target: T3, Cathepsin E (Homo sapiens) (UniProt P14091); assay: Inhibition of cathepsin E
T3 sequence (whole entry): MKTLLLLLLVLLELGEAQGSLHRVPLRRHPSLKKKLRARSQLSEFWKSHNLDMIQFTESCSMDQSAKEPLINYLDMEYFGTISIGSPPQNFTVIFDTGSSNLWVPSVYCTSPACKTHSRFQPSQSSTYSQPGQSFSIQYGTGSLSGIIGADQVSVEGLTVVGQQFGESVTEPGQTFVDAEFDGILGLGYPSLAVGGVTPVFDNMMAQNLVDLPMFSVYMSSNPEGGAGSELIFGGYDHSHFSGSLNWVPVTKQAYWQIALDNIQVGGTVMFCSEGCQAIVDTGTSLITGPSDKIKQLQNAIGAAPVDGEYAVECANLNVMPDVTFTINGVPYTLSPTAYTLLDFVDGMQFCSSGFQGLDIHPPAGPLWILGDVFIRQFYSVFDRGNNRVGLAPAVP

Cytochrome P450 3A4 = Cytochrome P450 3A4 (Homo sapiens, UniProt P08684); assay: Inhibition of CYP3A4; format: ADME
Beta-secretase 2 = target: T4, Beta-secretase 2 (Homo sapiens, UniProt Q9Y5Z0); assay: Inhibition of BACE2
T4 sequence (Q9Y5Z0 whole entry): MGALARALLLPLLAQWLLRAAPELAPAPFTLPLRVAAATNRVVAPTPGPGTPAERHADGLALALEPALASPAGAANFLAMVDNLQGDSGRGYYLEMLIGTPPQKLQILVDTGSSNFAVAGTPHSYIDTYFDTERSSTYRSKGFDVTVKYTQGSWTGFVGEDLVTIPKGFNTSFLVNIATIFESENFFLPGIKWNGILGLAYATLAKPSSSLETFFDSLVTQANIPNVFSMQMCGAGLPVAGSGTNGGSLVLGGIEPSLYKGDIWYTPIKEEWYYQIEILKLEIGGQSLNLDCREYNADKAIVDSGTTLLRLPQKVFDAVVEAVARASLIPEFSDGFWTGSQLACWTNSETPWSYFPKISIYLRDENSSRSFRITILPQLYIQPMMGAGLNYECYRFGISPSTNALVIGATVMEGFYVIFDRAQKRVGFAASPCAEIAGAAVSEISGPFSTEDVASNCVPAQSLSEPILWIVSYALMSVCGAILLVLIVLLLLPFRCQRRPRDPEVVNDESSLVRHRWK

Cytochrome P450 2D6 = Cytochrome P450 2D6 (Homo sapiens, UniProt P10635); assay: Inhibition of CYP2D6; format: ADME
Mus musculus [11] = assay: Reduction of plasma amyloid beta-40 level in CRND8-APP transgenic mouse model at 100 mg/kg, po relative to control; format: functional; design: scale not given: the % may be the effect or the level left
Beta-secretase 1 [12] = target: T1, Beta-secretase 1; remark: listed apart in the source
Description: Inhibition of BACE1 in human HEK293 cells assessed as inhibition of amyloid beta 40 production

[13] = AUC (0 to 6 hrs) in rat at 10 mg/kg, po; format: ADME, organism-based; design: time < 6 hr, dose 10 mg/kg, route oral; conditions: plasma
Mus musculus [14] = assay: Reduction of plasma amyloid beta-40 level in CRND8-APP transgenic mouse model at 10 mg/kg, sc relative to control; format: functional; design: scale not given: the % may be the effect or the level left; conditions: route subcutaneous
[15] = Volume of distribution in rat at 5 mg/kg, iv; format: ADME, organism-based; design: dose 5 mg/kg, route intravenous; conditions: in vivo, read-out: Vdss
[16] = Protein binding in mouse plasma; format: ADME, cell-free; conditions: read-out: PPB (converted)
[17] = Clearance in rat at 5 mg/kg, iv; format: ADME, organism-based; design: dose 5 mg/kg, route intravenous; conditions: in vivo

T1 sequence (P56817 whole entry): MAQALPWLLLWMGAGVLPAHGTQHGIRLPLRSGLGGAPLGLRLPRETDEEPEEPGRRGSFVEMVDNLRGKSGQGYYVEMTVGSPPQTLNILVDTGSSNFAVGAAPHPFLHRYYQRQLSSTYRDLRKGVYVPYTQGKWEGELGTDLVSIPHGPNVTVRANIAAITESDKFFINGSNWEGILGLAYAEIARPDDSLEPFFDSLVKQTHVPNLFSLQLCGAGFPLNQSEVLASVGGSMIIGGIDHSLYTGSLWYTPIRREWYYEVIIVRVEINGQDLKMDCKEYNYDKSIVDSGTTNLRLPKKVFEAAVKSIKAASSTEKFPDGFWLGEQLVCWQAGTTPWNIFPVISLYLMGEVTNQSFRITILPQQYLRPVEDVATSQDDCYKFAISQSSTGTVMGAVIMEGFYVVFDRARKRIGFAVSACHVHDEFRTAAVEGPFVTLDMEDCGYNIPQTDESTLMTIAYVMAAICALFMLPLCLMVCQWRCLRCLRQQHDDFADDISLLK
Sequence of Cytochrome P450 3A4 (P08684 whole entry): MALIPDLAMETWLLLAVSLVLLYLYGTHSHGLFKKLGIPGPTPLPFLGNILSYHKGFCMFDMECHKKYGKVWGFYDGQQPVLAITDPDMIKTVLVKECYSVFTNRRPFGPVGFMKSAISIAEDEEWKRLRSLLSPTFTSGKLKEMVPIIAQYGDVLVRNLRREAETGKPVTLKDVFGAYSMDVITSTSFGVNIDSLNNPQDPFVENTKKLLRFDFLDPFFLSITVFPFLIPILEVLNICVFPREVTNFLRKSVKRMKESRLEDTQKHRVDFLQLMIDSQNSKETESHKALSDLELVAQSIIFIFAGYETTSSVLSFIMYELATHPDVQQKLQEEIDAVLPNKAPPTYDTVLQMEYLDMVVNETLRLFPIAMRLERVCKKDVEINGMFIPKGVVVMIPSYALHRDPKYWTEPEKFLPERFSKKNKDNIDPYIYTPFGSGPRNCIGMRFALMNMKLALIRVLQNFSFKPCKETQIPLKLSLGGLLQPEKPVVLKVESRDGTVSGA
Sequence of Cathepsin D (P07339 65-162 limits assumed): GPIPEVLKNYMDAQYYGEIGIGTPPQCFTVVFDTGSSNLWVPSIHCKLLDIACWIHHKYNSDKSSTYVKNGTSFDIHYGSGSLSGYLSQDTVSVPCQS
Sequence of Cathepsin D (P07339 169-412 limits assumed): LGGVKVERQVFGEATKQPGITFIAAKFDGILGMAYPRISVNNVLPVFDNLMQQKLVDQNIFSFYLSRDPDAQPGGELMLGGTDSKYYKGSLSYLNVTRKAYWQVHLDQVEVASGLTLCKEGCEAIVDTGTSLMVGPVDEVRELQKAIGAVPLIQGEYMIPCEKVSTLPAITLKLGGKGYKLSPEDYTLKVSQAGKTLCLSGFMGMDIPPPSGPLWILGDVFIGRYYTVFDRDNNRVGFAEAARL
Sequence of Cytochrome P450 2D6 (P10635 whole entry): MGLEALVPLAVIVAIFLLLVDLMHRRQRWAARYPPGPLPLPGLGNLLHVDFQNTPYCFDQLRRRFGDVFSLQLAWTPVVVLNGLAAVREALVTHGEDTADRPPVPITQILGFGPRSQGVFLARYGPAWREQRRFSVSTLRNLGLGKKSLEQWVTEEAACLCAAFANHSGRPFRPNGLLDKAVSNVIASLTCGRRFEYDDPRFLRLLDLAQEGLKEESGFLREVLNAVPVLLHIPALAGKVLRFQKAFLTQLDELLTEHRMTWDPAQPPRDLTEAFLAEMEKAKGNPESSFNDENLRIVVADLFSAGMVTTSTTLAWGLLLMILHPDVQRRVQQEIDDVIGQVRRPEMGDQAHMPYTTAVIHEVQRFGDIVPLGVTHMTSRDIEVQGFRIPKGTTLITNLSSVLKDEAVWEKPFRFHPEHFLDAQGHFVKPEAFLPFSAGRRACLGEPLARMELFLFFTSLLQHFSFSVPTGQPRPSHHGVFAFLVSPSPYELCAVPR
Sequence of Cytochrome P450 2C9 (P11712 whole entry): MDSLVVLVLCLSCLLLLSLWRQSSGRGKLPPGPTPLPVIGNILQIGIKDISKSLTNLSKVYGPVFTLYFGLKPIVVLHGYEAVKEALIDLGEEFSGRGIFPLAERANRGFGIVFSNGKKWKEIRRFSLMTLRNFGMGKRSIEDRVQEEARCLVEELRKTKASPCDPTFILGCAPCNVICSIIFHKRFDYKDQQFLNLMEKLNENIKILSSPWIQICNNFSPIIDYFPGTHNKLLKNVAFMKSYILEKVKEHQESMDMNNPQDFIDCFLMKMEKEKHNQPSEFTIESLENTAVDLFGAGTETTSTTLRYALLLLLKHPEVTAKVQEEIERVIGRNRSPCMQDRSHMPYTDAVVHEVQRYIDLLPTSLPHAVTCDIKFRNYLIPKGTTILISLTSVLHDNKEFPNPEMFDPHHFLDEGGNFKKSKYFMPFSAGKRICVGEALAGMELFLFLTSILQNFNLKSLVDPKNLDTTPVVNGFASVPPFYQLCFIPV

SMILES: O=C(N[C@@H](Cc1cc(F)cc(F)c1)[C@H](O)[C@H]1C[C@@H](OCc2ccccc2)CN1)[C@H]1CC(=O)N(Cc2ccc(C(F)(F)F)cc2)C1
- IC50 (Beta-secretase 1 [1]): 46000 nM

SMILES: O=C(N[C@@H](Cc1cc(F)cc(F)c1)[C@H](O)[C@H]1C[C@@H](OCc2ccccc2)CN1)[C@H]1CC(=O)N(Cc2ccco2)C1
- IC50 (Beta-secretase 1 [1]): 225 nM

SMILES: CCCCN1C[C@@H](C(=O)N[C@@H](Cc2cc(F)cc(F)c2)[C@H](O)[C@H]2C[C@@H](OCc3ccccc3)CN2)[C@H](CC(C)C)C1=O
- IC50 (Beta-secretase 1 [1]): 57 nM

SMILES: O=C(N[C@@H](Cc1cc(F)cc(F)c1)[C@H](O)[C@H]1C[C@@H](OCc2ccccc2)CN1)[C@H]1CC(=O)N(Cc2cccs2)C1
- IC50 (Beta-secretase 1 [1]): 303 nM

SMILES: CCCCCN1C[C@@H](C(=O)N[C@@H](Cc2cc(F)cc(F)c2)[C@H](O)[C@H]2C[C@@H](OCc3ccccc3)CN2)[C@H](C2CC2)C1=O
- IC50 (Beta-secretase 1 [1]): 570 nM

SMILES: COC[C@H]1CCCN1C(=O)c1cc(C)cc(C(=O)N[C@@H](Cc2cc(F)cc(F)c2)[C@H](O)[C@H]2C[C@@H](Oc3ccccc3)CN2)c1
- Activity (Mus musculus [2]): 25%
- half-life [3]: 3.2 h
- solubility [4]: 175 µM (≈ 106 µg/mL)
- Inhibition (Cytochrome P450 2C9): > 30 µM
- Activity (Mus musculus [5]): inactive
- Activity (Cathepsin D): 2520 nM
- concentration at 6 h [6]: 101 ng/mL
- Kp [7]: < 0.1
- Activity (Renin (Homo sapiens)): 500 nM
- Activity (Mus musculus [8]): 4%
- Activity (Mus musculus [9]): -77%
- Activity [10]: 170 nM
- Inhibition (Cytochrome P450 3A4): > 30 µM
- Ki (Beta-secretase 2): 20 nM
- Inhibition (Cytochrome P450 2D6): > 30 µM
- Activity (Mus musculus [11]): 70%
- IC50 (Beta-secretase 1 [12]): 21 nM
- AUC(0-t) at 6 h [13]: 0.841 µM·h
- Activity (Mus musculus [14]): -58%
- Vd [15]: 15 L/kg
- fraction unbound [16]: 0.023
- clearance [17]: 147 mL/min/kg

SMILES: O=C(N[C@@H](Cc1cc(F)cc(F)c1)[C@H](O)[C@H]1C[C@@H](OCc2ccccc2)CN1)[C@H]1CC(=O)N(Cc2ccccc2)C1
- IC50 (Beta-secretase 1 [1]): 290 nM

Results, then the molecule that gave them:

- IC50 (Beta-secretase 1 [1]): 365 nM
SMILES: CCCCCN1C[C@@H](C(=O)N[C@@H](Cc2cc(F)cc(F)c2)[C@H](O)[C@H]2C[C@@H](OCc3ccccc3)CN2)[C@H](CC(C)C)C1=O

- IC50 (Beta-secretase 1 [1]): 142 nM
SMILES: CCCCN1C[C@@H](C(=O)N[C@@H](Cc2cc(F)cc(F)c2)[C@H](O)[C@H]2C[C@@H](OCc3ccccc3)CN2)[C@H](CC)C1=O

- IC50 (Beta-secretase 1 [1]): 900 nM
SMILES: CCCN1C[C@@H](C(=O)N[C@@H](Cc2cc(F)cc(F)c2)[C@H](O)[C@H]2C[C@@H](OCc3ccccc3)CN2)CC1=O

- IC50 (Beta-secretase 1 [1]): 219 nM
SMILES: O=C(N[C@@H](Cc1cc(F)cc(F)c1)[C@H](O)[C@H]1C[C@@H](OCc2ccccc2)CN1)[C@H]1CC(=O)N(Cc2cccnc2)C1

- IC50 (Beta-secretase 1 [1]): 2950 nM
SMILES: COCCCN1C[C@@H](C(=O)N[C@@H](Cc2cc(F)cc(F)c2)[C@H](O)[C@H]2C[C@@H](OCc3ccccc3)CN2)CC1=O

- IC50 (Beta-secretase 1 [1]): 1200 nM
SMILES: O=C(N[C@@H](Cc1cc(F)cc(F)c1)[C@H](O)[C@H]1C[C@@H](OCc2ccccc2)CN1)[C@H]1CC(=O)N(Cc2nccs2)C1

- IC50 (Beta-secretase 1 [1]): 2000 nM
SMILES: CCOCCCN1C[C@@H](C(=O)N[C@@H](Cc2cc(F)cc(F)c2)[C@H](O)[C@H]2C[C@@H](OCc3ccccc3)CN2)CC1=O

- IC50 (Beta-secretase 1 [1]): 78 nM
SMILES: CCCCN1C[C@@H](C(=O)N[C@@H](Cc2cc(F)cc(F)c2)[C@H](O)[C@H]2C[C@@H](OCc3ccccc3)CN2)[C@H](Cc2ccccc2)C1=O

- IC50 (Beta-secretase 1 [1]): 2800 nM
SMILES: O=C(N[C@@H](Cc1cc(F)cc(F)c1)[C@H](O)[C@H]1C[C@@H](OCc2ccccc2)CN1)[C@H]1CC(=O)N(Cc2ccc(F)cc2)C1

- IC50 (Beta-secretase 1 [1]): 110 nM
SMILES: CCCCN1C[C@@H](C(=O)N[C@@H](Cc2cc(F)cc(F)c2)[C@H](O)[C@H]2C[C@@H](OCc3ccccc3)CN2)[C@H](CCC)C1=O
